Broadly, the IC50 is the concentration needed to halve the response being measured.

Experiment [1] deals with T1, KDM4C (JMJD2C) (Homo sapiens, UniProt Q9H3R0).
T1 sequence (Q9H3R0 1-349): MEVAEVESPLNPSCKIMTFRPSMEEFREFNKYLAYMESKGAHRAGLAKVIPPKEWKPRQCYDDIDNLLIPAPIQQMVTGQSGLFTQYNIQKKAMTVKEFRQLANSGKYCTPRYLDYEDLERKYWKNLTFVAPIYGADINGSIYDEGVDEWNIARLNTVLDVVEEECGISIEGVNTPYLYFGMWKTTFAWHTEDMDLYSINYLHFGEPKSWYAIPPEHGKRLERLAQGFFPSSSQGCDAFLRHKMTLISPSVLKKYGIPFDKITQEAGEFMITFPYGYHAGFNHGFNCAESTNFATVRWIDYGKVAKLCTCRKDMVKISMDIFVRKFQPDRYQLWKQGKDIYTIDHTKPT
Nature of the experiment: Histone lysine demethylase AlphaLISA assay, KDM4C. Type of experiment: biochemical. The conditions noted are these: read-out: KDM4C HDME Inhibition IC50. Put shortly: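 Biotinylated methylated H3 peptides (K9, K4, K27 or K36 marks) served as substrate, with 25 μM L-Asc and 10 μM α-KG. Enzymes were preincubated 10 min, then exposed to compounds (3% DMSO solutions) 10 min; product detected by AlphaLISA acceptor and streptavidin donor beads at room temperature in dark.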
(Alpha assays give light when donor and acceptor beads are brought close together.)

The target in experiment [2] is T2, KDM5B (Homo sapiens, UniProt Q9UGL1).
T2 construct: (a.a. 1-752); host or cells: U2OS
T2 sequence (Q9UGL1 1-752): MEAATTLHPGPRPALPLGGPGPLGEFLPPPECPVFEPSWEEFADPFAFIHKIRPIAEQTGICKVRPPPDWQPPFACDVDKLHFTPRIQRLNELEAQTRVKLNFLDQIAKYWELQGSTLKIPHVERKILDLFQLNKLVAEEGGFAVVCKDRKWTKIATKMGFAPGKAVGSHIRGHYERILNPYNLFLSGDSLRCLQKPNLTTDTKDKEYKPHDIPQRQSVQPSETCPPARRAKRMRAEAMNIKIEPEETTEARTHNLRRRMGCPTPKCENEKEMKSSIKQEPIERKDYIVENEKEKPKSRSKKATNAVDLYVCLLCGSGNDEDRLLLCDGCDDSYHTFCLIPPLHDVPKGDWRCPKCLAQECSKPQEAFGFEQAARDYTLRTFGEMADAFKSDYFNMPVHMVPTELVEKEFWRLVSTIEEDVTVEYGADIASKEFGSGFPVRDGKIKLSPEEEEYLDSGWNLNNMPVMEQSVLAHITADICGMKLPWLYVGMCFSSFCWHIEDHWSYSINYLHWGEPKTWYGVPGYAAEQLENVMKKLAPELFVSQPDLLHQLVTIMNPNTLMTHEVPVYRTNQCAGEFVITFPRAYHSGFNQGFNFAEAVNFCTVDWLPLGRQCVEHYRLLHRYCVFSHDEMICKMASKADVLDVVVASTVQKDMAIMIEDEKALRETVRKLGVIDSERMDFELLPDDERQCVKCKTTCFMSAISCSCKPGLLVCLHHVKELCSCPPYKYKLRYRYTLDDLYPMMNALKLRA
Description: Histone lysine demethylase immunofluorescence assay, U2OS cells transfected with KDM5B. Type of experiment: cell-based. The following applies: U2OS cells transfected with pCMVHA KDM5B; mark detected H3K4me2; 20 hours. Here is the method:
U2OS cells were seeded 24 hours before transfection. Transfection was performed with Fugene HD transfection reagent as recommended by the manufacturer. 6 hours after transfection, the cells were harvested and seeded into multi well plates into media containing compound. The media used was DMEM containing 10% FBS and pen/strep. 20 hours after incubation of cells with compounds, the cells were washed in PBS, harvested by fixation with formaldehyde 4% aqueous solution, and washed in PBS. Subsequently, the cells were permeabilized in PBS with 0.2% Triton X-100 for. Blocking was performed in PBS with 0.2% Triton X-100 and 5% FBS. The cells were incubated with primary antibodies in blocking solution over night at 4° C. The primary antibodies used in the assays were HA.11 (Covance, MMS-101P) and the antibody detecting the mark specified in the table below. After incubation with primary antibodies, the cells were washed with PBS, incubated with secondary antibodies (Alexa fluor 594 goat anti rabbit IgG, Invitrogen, A11012; Alexa flour 488 donkey anti mouse IgG, Invitrogen, A21202) and Hoechst, (Sigma, 33342) in blocking solution, and washed again with PBS. Finally, PBS was added and high throughput imaging and analysis were performed by an IN Cell Analyzer 1000 (GE Healthcare). The robot software analyzed individual cells and divided these into HA+ (transfected cells) and HA− (non-transfected cells). The IC50 values were based on an average measure of the staining of the mark specified in the table below in the transfected cells.

Consider `CC1CC1/N=C/c1ccnc(CNCC(=O)N(C)C)c1` (stereo not shown) [Compound 35, N,N-dimethyl-2-[({4-[N-(2-methylcyclopropyl)-carboximidoyl]pyridin-2-yl}methyl)amino]-acetamide], for which the IC50 in experiment [1] and in experiment [2] was 0.25 to 2.5 µM in each case.

With `CN(C)C(=O)CNCc1cc(/C=N/CCC2CCCCC2)ccn1` [Compound 36, 2-[({4-[[(2-cyclohexylethyl)imino]-methyl]pyridin-2-yl}methyl)amino]-N,N-dimethylacetamide], the IC50 in experiment [1] and in experiment [2] was 0.25 to 2.5 µM throughout.

For the compound `CN(C)CCC/N=C/c1ccnc(CNCCCN(C)C)c1` [Compound 37, [3-(dimethylamino)propyl]-({4-[{[3-(dimethylamino)propyl]-imino}methyl]pyridin-2-yl}methyl)amine], the IC50 in experiment [1] was > 2.5 µM; in experiment [2], < 0.25 µM.

Consider `CN(C)CCCNCc1cc(/C=N/CCN(C)C)ccn1` [Compound 38, ({4-[{[2-(dimethylamino)ethyl]-imino}methyl]pyridin-2-yl}methyl)[3-(dimethylamino)-propyl]amine], for which the results for the IC50 in experiment [1] and in experiment [2] were 0.25 to 2.5 µM and < 0.25 µM, respectively.

For `CCSCCNCc1cc(/C=N/C2CC2)ccn1` [Compound 39, N-{[2-({[2-(ethylsulfanyl)-ethyl]amino}methyl)pyridin-4-yl]methylidene}-cyclopropanamine], the IC50 in experiment [1] and in experiment [2] was > 2.5 µM each time.

Regarding `CN1CCCC1CCNCc1cc(/C=N/C2CC2)ccn1` (stereo not drawn) [Compound 40, N-{[2-({[2-(l-methylpyrrolidin-2-yl)ethyl]amino}methyl)-pyridin-4-yl]methylidene}-cyclopropanamine], the IC50 in experiment [1] was > 2.5 µM; in experiment [2] it was < 0.25 µM.

Consider `CN(CCCNCc1cc(/C=N/C2CC2)ccn1)Cc1ccccc1` [Compound 41, N-({2-[({3-[benzyl(methyl)amino]-propyl}amino)methyl]-pyridin-4-yl}methylidene)-cyclopropanamine], for which the IC50 in experiment [1] and in experiment [2] was 0.25 to 2.5 µM each time.

As to `C(=N/C1CC1)/c1ccnc(CNCCCN2CCCC2)c1` [Compound 42, N-{[2-({[3-(pyrrolidin-1-yl)propyl]amino}-methyl)pyridin-4-yl]methylidene}-cyclopropanamine], the figures for the IC50 in experiment [1] and in experiment [2] were > 2.5 µM and < 0.25 µM, respectively.

`CN(C)C/C=C/CNCc1cc(/C=N/C2CC2)ccn1` [Compound 43, N-{[2-({[(2E)-4-(dimethylamino)but-2-en-1-yl]amino}-methyl)pyridin-4-yl]methylidene}-cyclopropanamine]: the IC50 in experiment [1] and in experiment [2] was < 0.25 µM throughout.

For the compound `CN(C)CCCCNCc1cc(/C=N\C2CC2)ccn1` [Compound 45, N-{[2-({[4-(dimethylamino)butyl]-amino}methyl)-pyridin-4-yl]methylidene}-cyclopropanamine], the IC50 is > 2.5 µM in experiment [1] and < 0.25 µM in experiment [2].

Turning to `CN(C)CC1CCC(CNCc2cc(/C=N/C3CC3)ccn2)CC1` (stereo not shown) [Compound 46, N-[(2-{[({4-[(dimethylamino)-methyl]cyclohexyl}-methyl)amino]-methyl}pyridin-4-yl)methylidene]-cyclopropanamine], the IC50 in experiment [1] was > 2.5 µM; in experiment [2], < 0.25 µM.

`CN(C)CCCCCNCc1cc(/C=N/C2CC2)ccn1` [Compound 47, N-{[2-({[5-(dimethylamino)-pentyl]amino}-methyl)pyridin-4-yl]methylidene}-cyclopropanamine]: the IC50 is > 2.5 µM in experiment [1] and < 0.25 µM in experiment [2].

For the compound `CCN(CC)CCCCNC(=O)CNCc1cc(/C=N/C2CC2)ccn1` [Compound 48, 2-[({4-[N-cyclopropyl-carboximidoyl]pyridin-2-yl}methyl)amino]-N-[4-(diethylamino)-butyl]acetamide], the IC50 is 0.25 to 2.5 µM in experiment [1] and > 2.5 µM in experiment [2].

For the compound `O=C(CNCc1cc(/C=N/C2CC2)ccn1)N1CCC[C@@H]1CN1CCCC1` [Compound 49, 2-[({4-[N-cyclopropyl-carboximidoyl]pyridin-2-yl}methyl)amino]-1-[(2R)-2-(pyrrolidin-1-ylmethyl)pyrrolidin-1-yl]ethan-1-one], the results for the 50% inhibitory concentration (IC50) in experiment [1] and in experiment [2] were 0.25 to 2.5 µM and < 0.25 µM, respectively.

For the compound `CCN(CCC#N)C(=O)CNCc1cc(/C=N/C2CC2)ccn1` [Compound 50, N-(2-cyanoethyl)-2-[({4-[N-cyclopropyl-carboximidoyl]-pyridin-2-yl}methyl)amino]-N-ethylacetamide], the IC50 in experiment [1] and in experiment [2] was 0.25 to 2.5 µM throughout.

In the case of `CCN1CCCC1CNC(=O)CNCc1cc(/C=N/C2CC2)ccn1` (stereo not shown) [Compound 51, 2-[({4-[N-cyclopropyl-carboximidoyl]-pyridin-2-yl}methyl)-amino]-N-[(1-ethylpyrrolidin-2-yl)methyl]acetamide], the values for the IC50 in experiment [1] and in experiment [2] were > 2.5 µM and 0.25 to 2.5 µM, respectively.

On to `CN(CCCn1cccn1)C(=O)CNCc1cc(/C=N/C2CC2)ccn1` [Compound 52, 2-[({4-[N-cyclopropyl-carboximidoyl]-pyridin-2-yl}methyl)amino]-N-methyl-N-[3-(1H-pyrazol-1-yl)propyl]acetamide], for which the IC50 in experiment [1] and in experiment [2] was 0.25 to 2.5 µM throughout.

With `O=C(CNCc1cc(/C=N/C2CC2)ccn1)NC1CCN(Cc2ccccc2)C1` (stereo not shown) [Compound 53, N-(1-benzylpyrrolidin-3-yl)-2-[({4-[N-cyclopropyl-carboximidoyl]pyridin-2-yl}methyl)amino]-acetamide], the IC50 in experiment [1] and in experiment [2] was 0.25 to 2.5 µM throughout.

Regarding `CN1CCN(C(=O)CNCc2cc(/C=N/C3CC3)ccn2)CC1` [Compound 54, 2-[({4-[N-cyclopropyl-carboximidoyl]-pyridin-2-yl}methyl)amino]-1-(4-methylpiperazin-1-yl)ethan-1-one], the IC50 in experiment [1] and in experiment [2] was 0.25 to 2.5 µM in each case.

On to `O=C(CNCc1cc(/C=N/C2CC2)ccn1)N1CCC(Cc2ccccc2)CC1` [Compound 55, 1-(4-benzylpiperidin-1-yl)-2-[({4-[N-cyclopropyl-carboximidoyl]-pyridin-2-yl}methyl)amino]-ethan-1-one], for which the values for the IC50 in experiment [1] and in experiment [2] were 0.25 to 2.5 µM and > 2.5 µM, respectively.

As to `C#CCN(C)C(=O)CNCc1cc(/C=N/C2CC2)ccn1` [Compound 56, 2-[({4-[N-cyclopropyl-carboximidoyl]-pyridin-2-yl}methyl)amino]-N-methyl-N-(prop-2-yn-1-yl)acetamide], the IC50 in experiment [1] and in experiment [2] was > 2.5 µM throughout.

On to `CCN(CC)CCCCNCc1cc(/C=N/CCO)ccn1` [Compound 61, 2-[{[2-({[4-(diethylamino)-butyl]amino}-methyl)pyridin-4-yl]methylidene}-amino]ethan-1-ol], for which the IC50 in experiment [1] was 0.25 to 2.5 µM; in experiment [2], < 0.25 µM.

Turning to `CCN(CC)CCCCNCc1cc(/C=N/CC(F)(F)C(F)(F)F)ccn1` [Compound 62, {[2-({[4-(diethylamino)-butyl]amino}methyl)pyridin-4-yl]methylidene} (2,2,3,3,3-pentafluoropropyl)-amine], the IC50 was > 2.5 µM in experiment [1] and < 0.25 µM in experiment [2].

The record behind these values is patent publication US9650339B2, “Inhibitors of histone demethylases” (Gilead Sciences, Inc., priority 2013, dated 2017).
